Where two headings read alike, the source gives them in different places.
Columns and labels:
[1] = system: Z5B71 T cell clone; assay: T cell activation assay: stimulation of the Z5B71 T cell clone, IFN-γ ELISA; type: cell-based, human; settings: antigen-loaded APCs, 36 hr
[2] = target: T1, CD1b (Homo sapiens, UniProt P29016); type: cell-based; settings: Z5B71 clone
T1 construct: expressed in transfected cells; host or cells: THP-1 (human promyelocytic), BCMGS-Neo / -Hygro vectors, electroporation
T1 sequence (P61769 21-119): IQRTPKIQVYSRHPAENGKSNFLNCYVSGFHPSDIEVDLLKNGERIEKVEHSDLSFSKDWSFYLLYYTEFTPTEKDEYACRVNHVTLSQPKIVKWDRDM
T1 sequence (P29016 18-333): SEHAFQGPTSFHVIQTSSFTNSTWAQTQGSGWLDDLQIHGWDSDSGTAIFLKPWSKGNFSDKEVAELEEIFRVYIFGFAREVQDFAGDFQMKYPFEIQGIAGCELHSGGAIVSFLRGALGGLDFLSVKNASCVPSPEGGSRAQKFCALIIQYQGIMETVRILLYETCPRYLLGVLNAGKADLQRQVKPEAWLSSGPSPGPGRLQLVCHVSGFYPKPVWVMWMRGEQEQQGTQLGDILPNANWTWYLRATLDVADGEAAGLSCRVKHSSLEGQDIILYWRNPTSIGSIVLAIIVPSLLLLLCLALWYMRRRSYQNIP

[3] = system: CD1b-restricted T cell clones Z5B71, Z4B27, Z5B11; assay: DCs pulsed with heat-killed or infected with living M. tuberculosis, recognition by CD1b-restricted T cell clones; type: cell-based, human
Experimental: Pulsing and infection of DCs with M. tuberculosis. M. tuberculosis was killed at 80° C. for 20 min and incubated in RPMI-1640 medium containing 10% FCS for 2 hours at 37° C. with DCs (3×10^4/well) before addition of T cells (10^5/well in triplicate). DCs were infected as previously described De Libero et al. (2005) Immunity 22, 763-72 and IFN-γ release was monitored by ELISA.

[4] = system: PBMCs with autologous DCs; type: cell-based, human

Substance	stimulation of the Z5B71 T cell clone (IFN-γ release) [1]	T cell response with APCs expressing CD1b and CD1e versus only CD1b (IFN-γ release) ([2]; THP-1-CD1b vs THP-1-CD1b-CD1e)	CD1 restriction: T cell stimulation with panel of CD1-transfected APCs (TNF-α release) ([2]; THP-1 transfected with CD1A, CD1B or CD1C)	CD1 restriction: inhibition of clone reactivity by anti-CD1 mAbs (TNF-α release) ([2]; mAbs at 10 μg/ml, 30 min before T cells)	immunogenicity when APCs infected with living M. tuberculosis (IFN-γ release by Z5B71) [3]	IFN-γ release after stimulation, mean average [4] [pg/mL]	IFN-γ release after stimulation, mean average ([4]; 10 μg/ml, 6 days) [pg/mL]	effect of blocking antibodies against type 1 CD1 molecules on induced IFN-γ secretion ([4]; PPD-positive healthy donors, CD1 blocking antibodies 10 μg/ml each)	IFN-γ release after stimulation ([4]; naïve, PPD-negative donors (n=10), 10 μg/ml, 6 days)	IFN-γ release after stimulation ([4]; tuberculosis patients (n=11), 10 μg/ml, 6 days)
(R)-1-O-mycoloyl-glycerol (3-O-mycoloyl-sn-glycerol) [s(R)-GroMM]	stimulated the Z5B71 T cells more efficiently than the s(S)-GroMM	–	–	–	–	–	–	–	–	–
(S)-1-O-mycoloyl-glycerol (1-O-mycoloyl-sn-glycerol) [s(S)-GroMM]	s(R)-GroMM stimulated the Z5B71 T cells more efficiently than the s(S)-GroMM	–	–	–	–	–	–	–	–	–
glycerol monomycolate [GroMM]	intermediate activity	very similar T cell response	Only CD1b-expressing cells were able to stimulate T cells	only anti-CD1b mAbs were capable of inhibiting the reactivity of the clone	highly immunogenic	117	73	abrogated the reactivity	no response	no IFN-γ secretion above background levels
